In US9464135B2, “Epithelial membrane protein-2 (EMP2) and proliferative vitroretinopathy (PVR)” (THE REGENTS OF THE UNIVERSITY OF CALIFORNIA, priority 2009, dated 2016):

How the values were obtained:
Format in all cases: cell-based, human
[1] = test system: ARPE-19 cells; assay: Collagen gel contraction assay, ARPE-19 cells; conditions: 1 hour pretreatment, normalized to vehicle control, read-out: concentration required to achieve 50% inhibition of the gel contraction
Experimental: EMP2 diabody was recombinantly constructed using a phage library to select for reactivity against a human EMP2 peptide. […] Toxicity, adhesion, and migration were assessed respectively through flow cytometry using Annexin V, binding to collagen type 1, and a wound healing assay. Collagen gel contraction was assessed using an in vitro assay.
(§1) Collagen gel contraction assays were performed as previously reported (Morales S A et al., Exp Eye Res, 85(6):790-798 (2007)). Briefly, collagen gels were prepared by combining collagen type I (BD Biosciences) 10×DMEM, and DMEM/F12. The final concentration of the collagen type I mixture was 2.5 mg/mL. The collagen solution (500 μL) was added to each well of a 24-well plate and incubated at 37° C. in 5% CO2 for 1 hour. Cultured ARPE-19 cell with modified EMP2 levels were harvested and resuspended in serum-free DMEM/F12 at a final concentration of 5×10^5/mL. ARPE-19 cells with modified EMP2 levels were seeded onto the collagen gel at a concentration of 2.5×10^5 cells per well and the percentage of contraction was measured at 24 hours. The area of the each gel was obtained by taking a picture of the gel using image capture (Gel Doc 2000; Bio-Rad, Hercules, Calif.) and quantified with NIH Image J (developed by Wayne Rasband, National Institutes of Health, Bethesda, Md.; available at http://rsb.info.nih.gov/ij/index.html). […]

[2] = test system: ARPE-19/EMP2 siRNA cells; assay: Collagen gel contraction assay, ARPE-19/EMP2 siRNA cells; conditions: 1 hour pretreatment, normalized to vehicle control, read-out: concentration required to achieve 50% inhibition of the gel contraction
Experimental: as §1
(§2) Collagen gels were prepared with collagen type I (BD Biosciences) in DMEM/F12 at a final concentration of 2.5 mg/mL. […] ARPE-19, ARPE-19/EMP2, and ARPE-19/EMP2 siRNA cells were seeded onto the collagen gels at a concentration of 2.5×10^5 cells per well and the percentage of contraction was measured at specific time intervals. […]

[3] = test system: ARPE-19/EMP2 cells; assay: Collagen gel contraction assay, ARPE-19/EMP2 cells; conditions: overexpressing ARPE-19/EMP2 cells; 1 hour pretreatment; normalized to vehicle control; read-out: concentration required to achieve 50% inhibition of the gel contraction
Experimental: as §1, §2

[4] = test system: ARPE-19 cells; assay: Migration assay (scratch wound closure); conditions: 50 ng/mL PDGF, 24 hours
Experimental: ARPE-19 and ARPE-19/EMP2 cells were seeded onto a 24-well plate and incubated for 3 days until cells reached confluence. The cells were washed with PBS, serum-free medium was added, and the cells were incubated overnight. A 10 μL pipette tip was used to make a scratch in the monolayer and the medium was removed and replaced with serum-free medium or serum-free medium that contained 50 ng/mL PDGF. Pictures of the wound were taken at various time points, and the percentage closure of the scratch was quantified with NIH Image J software. The area of the scratch was measured immediately after the wound was created. Over time, cells migrated into the cleared area; however, a gap was still visible after 24 hours. The gap size was measured and divided by the original scratch size, and this value was expressed as percentage closure.

[5] = test system: ARPE-19 and ARPE-19/EMP2 cells; assay: Collagen production (Sircol Collagen Assay); conditions: 10 ng/mL TGF-β, 72 hours, serum-free medium; compared with untreated condition
Experimental: ARPE-19 and ARPE-19/EMP2 cells were seeded onto a six-well plate at a concentration of 7×10^5 cells/mL in serum-free medium in the presence or absence of 10 ng/mL […]. The medium was collected after 72 hours. Secreted collagen was measured (Sircol Collagen Assay; Accurate Chemical & Scientific, Westbury, N.Y.). The collagen assay is a colorimetric procedure. The reaction product was quantified with the microplate reader at a wavelength of 540 nm. Each experiment included at least six replicates, and at least three independent experiments were performed. A Student's t-test (unpaired, one-tail) was used. P<0.05 was judged to be statistically significant.

In the case of `CC(C)(C)n1nc(-c2ccc(Cl)cc2)c2c(N)ncnc21` [PP2], the IC50 [1] is reported as 2500 nM, the IC50 [2] is reported as less than 1000 nM and the IC50 [3] is reported as 5000 nM.

PDGF was tested, and the wound closure [4] was “stimulated wound closure”.

With TGF-β the collagen production [5] was “increased collagen production”.
